Counter-ions that a name gives are not always drawn. Marks after values point to notes of the source that are not given here. Blank lines part the entries; values can stand above or below the compound they belong to. Where a SMILES comes first, the peptide text is derived from it. [ ]: non-standard residue; d: D form. dTrp(1-Me) = Cn1cc(C[C@@H](N)C(=O)O)c2ccccc21
Columns and labels:
[1] = pharmacokinetic testing of indoximod prodrug salts in solid capsule formulation in rats; type: in vivo; settings: rats; for increase in indoximod AUC versus equivalent molar dose of indoximod / increase in indoximod Cmax versus equivalent molar dose of indoximod: dose not given (Tables 10.2, 10.3); for % Change Cmax / % Change in AUC: vs indoximod free base, oral capsules
Description: These blends were formulated so that each capsule contained the same molar dose of each prodrug. […] The composition and uniformity of a representative sample of capsules from each batch was verified by weight and by LC-MS/MS to determine the average indoximod or prodrug content.
(§1) Rats were fasted 16 h prior to dosing to eliminate any confounding food effects, and food was returned 2 h after dosing.

[2] = solubility of indoximod and its salts in water, buffers and SGF; type: physicochemical; settings: 25° C.; for pH of the SGF solution (in brackets): SGF solubility test; for pH of the water solution (in brackets): water solubility test
[3] = pharmacokinetic testing of indoximod prodrugs in liquid formulation in mice; settings: mice; for change in indoximod Cmax versus indoximod in suspension: oral, all doses tested (10, 50 and 100 mg/kg)
Description: Blood samples (0.1-0.2 mL) were collected from the femoral artery port from rats or by retro-orbital bleeding from mice and plasma was immediately collected by centrifugation and stored on dry ice to avoid prodrug hydrolysis after plasma collection. […] The pharmacokinetic parameters reflect the average of individual parameter values obtained from each individual rat (n) or one common parameter from a single pharmacokinetic curve derived from blood samples obtained from a group of mice (n).

[4] = hygroscopicity and stability of indoximod and its salts; type: physicochemical; settings: Table 2, in % (unit assumed)
[5] = pharmacokinetic testing of indoximod salts in capsule formulation in rats; type: in vivo; settings: capsules, 37 μmol/kg
Description: Three dose levels were investigated: 37, 185 or 500 μmol/kg.
Capsules were manually filled and the composition uniformity of a representative sample of capsules from each batch was verified by weight and by LC-MS/MS to determine the average indoximod content.
as §1

[6] = Table 10.3, dose 37 μmol/kg, salt form free base
[7] = Table 10.1, dose 37 μmol/kg, salt form free base
[8] = Table 10.2, dose 37 μmol/kg, salt form HCl
[9] = Table 10.2, dose 185 μmol/kg, salt form H3PO4
[10] = Table 10.2, dose 185 μmol/kg, salt form HCl
[11] = listed as Mesylate, methanesulfonate

Compound: Cn1cc(C[C@@H](NC(=O)CN)C(=O)O)c2ccccc21 [Cpd 05, N^α-(L-glycyl)-1-methyl-D-tryptophan] (H-Gly-[dTrp(1-Me)]-OH)
increase in indoximod AUC versus equivalent molar dose of indoximod ([1]; capsules): minor and non-statistically significant variations
increase in indoximod Cmax versus equivalent molar dose of indoximod ([1]; capsules): minor and non-statistically significant variations

Solubility (25° C., mg/mL) SGF [2]: 6.0 mg/mL
pH of the SGF solution (in brackets) [2]: 1.84
Solubility (25° C., mg/mL) Water [2]: 5.5 mg/mL
pH of the water solution (in brackets) [2]: 2.34
Compound: CS(=O)(=O)O.Cn1cc(C[C@@H](N)C(=O)O)c2ccccc21.Cn1cc(C[C@@H](N)C(=O)O)c2ccccc21 [Hemi-Mesylate]

increase in indoximod AUC versus equivalent molar dose of indoximod ([1]; capsules, hydrochloride): less significant increases
increase in indoximod Cmax versus equivalent molar dose of indoximod ([1]; capsules, hydrochloride): less significant increases
Compound: Cn1cc(C[C@@H](N)C(=O)OCC(O)CO)c2ccccc21 (stereo partly drawn) [NLG-1558, 2,3-dihydroxypropyl 1-methyl-D-tryptophanate hydrochloride]

change in indoximod AUC compared to indoximod ([1]; capsules, 500 μmol/kg): minor increase
change in indoximod Cmax compared to indoximod ([1]; capsules, 500 μmol/kg): minor increase
increase in indoximod Cmax versus indoximod ([1]; capsules, 37-185 μmol/kg): significant increases
Compound: CCOC(=O)[C@@H](Cc1cn(C)c2ccccc12)NC(=O)[C@@H](N)CC(C)C.Cl [NLG-1564, ethyl N^α-(L-leucyl)-1-methyl-D-tryptophanate hydrochloride]

Compound: CCOC(=O)[C@@H](Cc1cn(C)c2ccccc12)NC(=O)C[C@H](N)C(=O)OC.Cl [NLG-1585, methyl N^4-((R)-1-ethoxy-3-(1-methyl-1H-indol-3-yl)-1-oxopropan-2-yl)-L-asparaginate hydrochloride]
increase in indoximod AUC versus equivalent molar dose of indoximod ([1]; capsules): minor and non-statistically significant variations
increase in indoximod Cmax versus equivalent molar dose of indoximod ([1]; capsules): minor and non-statistically significant variations

change in indoximod AUC versus indoximod ([3]; oral, 10, 50 and 100 mg/kg, percentage of increase decreases at higher doses): dose dependent increase
change in indoximod Cmax versus indoximod in suspension [3]: significant increase
Compound: Cn1cc(C[C@@H](N)C(=O)OCC(O)CO)c2ccccc21.O=P(O)(O)O (stereo partly drawn) [NLG-1626, (2R)-1-(2,3-dihydroxypropoxy)-3-(1-methyl-1H-indol-3-yl)-1-oxopropan-2-dihydrogen phosphate]

increase in indoximod AUC versus equivalent molar dose of indoximod ([1]; capsules, methanesulfonate): decrease
increase in indoximod Cmax versus equivalent molar dose of indoximod ([1]; capsules, methanesulfonate): decrease
Compound: Cn1cc(C[C@@H](N)C(=O)OCC(O)CO)c2ccccc21 (stereo partly drawn) [NLG-1627, (2R)-1-(2,3-dihydroxypropoxy)-3-(1-methyl-1H-indol-3-yl)-1-oxopropan-2-aminium methanesulfonate]

increase in indoximod AUC versus equivalent molar dose of indoximod ([1]; capsules): less significant increases
increase in indoximod Cmax versus equivalent molar dose of indoximod ([1]; capsules): less significant increases
Compound: Cn1cc(C[C@@H](N)C(=O)OCC(O)CO)c2ccccc21 (stereo partly drawn) [NLG-1628, (2R)-1-(2,3-dihydroxypropoxy)-3-(1-methyl-1H-indol-3-yl)-1-oxopropan-2-aminium sulfate]

change in indoximod Cmax versus indoximod in suspension [3]: significant increase
increase in indoximod Cmax versus indoximod ([1]; capsules, 37-185 μmol/kg): significant increases
Compound: CCOC(=O)[C@@H](Cc1cn(C)c2ccccc12)NC(=O)[C@@H](N)CC(C)C.O=P(O)(O)O [NLG-1665]

increase in indoximod Cmax versus indoximod ([1]; capsules, 37-185 μmol/kg, methanesulfonate): significant increases
Compound: CCOC(=O)[C@@H](Cc1cn(C)c2ccccc12)NC(=O)[C@@H](N)CC(C)C [NLG-1666, (S)-1-(((R)-1-ethoxy-3-(1-methyl-1H-indol-3-yl)-1-oxopropan-2-yl)amino)-4-methyl-1-oxopentan-2-aminium methanesulfonate]

% Change Cmax [1, 6]: 5%
% Change in AUC [1, 6]: −16%
Compound: CCOC(=O)[C@@H](Cc1cn(C)c2ccccc12)NC(=O)[C@@H](N)CCC(N)=O [NLG-1672] (H-Gln-[dTrp(1-Me)]-OEt)

% Change Cmax [1, 7]: −17%
% Change in AUC [1, 7]: −13%
Compound: Cn1cc(C[C@@H](NC(=O)[C@@H](N)CCCCN)C(=O)O)c2ccccc21 [NLG-1676] (H-Lys-[dTrp(1-Me)]-OH)

increase in exposure (AUC) of indoximod versus indoximod ([1]; capsules, 37-185 μmol/kg): did not result in a significant increase
increase in indoximod Cmax versus indoximod ([1]; capsules, 37-185 μmol/kg): did not result in a significant increase
Compound: CCOC(=O)[C@@H](Cc1cn(C)c2ccccc12)NC(=O)[C@@H](N)CC(C)C [NLG-1691, ethyl N^α-((S)-2-(λ^4-azanyl)-4-methylpentanoyl)-1-methyl-D-tryptophanate sulfate]

change in indoximod AUC versus indoximod ([1]; capsules, 37-500 μmol/kg): statistically significant increase
change in indoximod Cmax versus indoximod ([1]; capsules, 37-500 μmol/kg): statistically significant increase
Compound: CCOC(=O)[C@@H](Cc1cn(C)c2ccccc12)NC(=O)[C@@H](N)CCSC [NLG-3272, ethyl N^α-(L-methionyl)-1-methyl-D-tryptophanate] (H-Met-[dTrp(1-Me)]-OEt)

% Change Cmax [1, 8]: 16%
% Change in AUC [1, 8]: 24%
% Change Cmax [1, 9]: 118%
% Change in AUC [1, 9]: 66%
% Change Cmax [1, 10]: 345%
% Change in AUC [1, 10]: 181%
Compound: CSCC[C@H](N)C(=O)N[C@H](Cc1cn(C)c2ccccc12)C(=O)O [NLG-3380] (H-Met-[dTrp(1-Me)]-OH)

Compound: Cn1cc(C[C@@H](NC(=O)[C@@H](N)CCCCN)C(=O)O)c2ccccc21 [N^α-(L-lysyl)-1-methyl-D-tryptophan] (H-Lys-[dTrp(1-Me)]-OH)
increase in indoximod AUC versus equivalent molar dose of indoximod ([1]; capsules): minor and non-statistically significant variations
increase in indoximod Cmax versus equivalent molar dose of indoximod ([1]; capsules): minor and non-statistically significant variations

Hygroscopicity (0-80% RH) [4]: 3.4
Compound: O=S(=O)(O)O [Sulfate]

Compound: CCOC(=O)[C@@H](Cc1cn(C)c2ccccc12)NC(=O)[C@@H](N)CCC(N)=O [ethyl N^α-(L-glutaminyl)-1-methyl-D-tryptophanate] (H-Gln-[dTrp(1-Me)]-OEt)
increase in indoximod AUC versus equivalent molar dose of indoximod ([1]; capsules): minor and non-statistically significant variations
increase in indoximod Cmax versus equivalent molar dose of indoximod ([1]; capsules): minor and non-statistically significant variations

% Increase over indoximod Free Base (AUC) ([5]; methanesulfonate): 38%
% Increase over indoximod Free Base (Cmax) ([5]; methanesulfonate): 28%
AUC(0 −> ∞) ([5]; methanesulfonate): 537 ± 194 µM·h
Cmax ([5]; methanesulfonate): 20.3 ± 2 µM
pH of the SGF solution (in brackets) [2, 11]: 1.43
Solubility (25° C., mg/mL) SGF [2, 11]: 6.0 mg/mL
pH of the water solution (in brackets) [2, 11]: 1.84
Solubility (25° C., mg/mL) Water [2, 11]: 5.1 mg/mL
Hygroscopicity (0-80% RH) [4, 11]: 0.12*
Compound: Cn1cc(C[C@@H](N)C(=O)O)c2ccccc21 [indoximod CH3SO3H, (R)-1-carboxy-2-(1-methyl-1H-indol-3-yl)ethan-1-aminium methanesulfonate]

% Increase over indoximod Free Base (AUC) ([5]; hydrogen sulfate): 42%
% Increase over indoximod Free Base (Cmax) ([5]; hydrogen sulfate): 42%
AUC(0 −> ∞) ([5]; hydrogen sulfate): 553 ± 196 µM·h
Cmax ([5]; hydrogen sulfate): 22.6 ± 7 µM
Compound: Cn1cc(C[C@@H](N)C(=O)O)c2ccccc21 [indoximod H2SO4, (R)-1-carboxy-2-(1-methyl-1H-indol-3-yl)ethan-1-aminium hydrogen sulfate]
